pIC50: −log10 of the molar value. Structures can show the parent of a compound that is named as a salt.
Key:
Type in all cases: cell-based
[1] = biological target: T1, NMDA receptor subunits 1A/2A (Rattus norvegicus, UniProt P35439+Q00959); test: Electrophysiological assay at NMDA receptor subunits expressed in Xenopus oocytes, 1A/2A; settings: glutamate 100 μm and glycine 1-100 μm
T1 construct: expressed in transfected cells; host or cells: Xenopus laevis oocytes (cRNA injection; clones from Dr. P. H. Seeburg)
T1 sequence (Q00959 20-1464 limits assumed, other chains not shown): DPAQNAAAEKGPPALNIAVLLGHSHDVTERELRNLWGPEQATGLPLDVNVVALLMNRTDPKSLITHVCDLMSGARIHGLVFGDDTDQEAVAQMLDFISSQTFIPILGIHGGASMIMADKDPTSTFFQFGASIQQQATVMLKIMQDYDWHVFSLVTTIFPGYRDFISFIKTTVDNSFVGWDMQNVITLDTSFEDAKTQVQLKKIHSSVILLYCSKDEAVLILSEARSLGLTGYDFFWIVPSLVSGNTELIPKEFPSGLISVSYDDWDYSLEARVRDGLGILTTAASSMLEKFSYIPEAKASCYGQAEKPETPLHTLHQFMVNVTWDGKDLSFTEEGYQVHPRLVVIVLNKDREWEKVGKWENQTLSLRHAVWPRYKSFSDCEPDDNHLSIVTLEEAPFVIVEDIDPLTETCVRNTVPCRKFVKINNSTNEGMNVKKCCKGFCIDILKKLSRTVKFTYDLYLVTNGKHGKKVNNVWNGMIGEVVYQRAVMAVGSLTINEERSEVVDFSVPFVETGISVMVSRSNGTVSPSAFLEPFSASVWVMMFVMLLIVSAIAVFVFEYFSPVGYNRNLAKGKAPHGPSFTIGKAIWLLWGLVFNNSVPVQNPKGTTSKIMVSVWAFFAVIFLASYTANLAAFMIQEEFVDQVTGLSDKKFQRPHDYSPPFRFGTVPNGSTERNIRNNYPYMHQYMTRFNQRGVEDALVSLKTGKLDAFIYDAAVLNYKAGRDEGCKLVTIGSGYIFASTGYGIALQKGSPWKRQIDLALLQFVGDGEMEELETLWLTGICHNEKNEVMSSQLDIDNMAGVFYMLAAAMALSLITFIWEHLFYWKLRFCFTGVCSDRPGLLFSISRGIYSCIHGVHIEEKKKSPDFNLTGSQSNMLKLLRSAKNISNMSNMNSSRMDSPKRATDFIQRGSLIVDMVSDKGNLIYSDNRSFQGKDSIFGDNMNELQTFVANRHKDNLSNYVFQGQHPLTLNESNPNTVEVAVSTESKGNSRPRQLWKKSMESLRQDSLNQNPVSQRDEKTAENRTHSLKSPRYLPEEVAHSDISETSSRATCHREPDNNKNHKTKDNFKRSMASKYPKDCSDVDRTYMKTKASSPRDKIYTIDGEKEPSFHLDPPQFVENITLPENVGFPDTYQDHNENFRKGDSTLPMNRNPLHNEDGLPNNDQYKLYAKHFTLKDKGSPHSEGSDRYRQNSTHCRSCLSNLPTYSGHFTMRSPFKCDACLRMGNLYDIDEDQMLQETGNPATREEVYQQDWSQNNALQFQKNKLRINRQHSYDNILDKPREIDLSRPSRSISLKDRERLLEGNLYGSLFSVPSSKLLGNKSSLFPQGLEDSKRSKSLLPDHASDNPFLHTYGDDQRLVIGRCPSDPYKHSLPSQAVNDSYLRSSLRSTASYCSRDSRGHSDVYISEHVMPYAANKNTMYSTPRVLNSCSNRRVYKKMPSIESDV
Method: (§1) Many of the properties of native NMDA receptors are seen in recombinant homomeric NR1 receptors. These properties are altered by the NR2 subunits. Recombinant NMDA receptors expressed in Xenopus oocytes have been studied by voltage-clamp recording, as has developmental and regional expression of the mRNAs encoding NMDA receptor subunits. Electrophysiological assays were utilized to characterize the actions of compounds at NMDA receptors expressed in Xenopus oocytes. The compounds were assayed at four subunit combinations of cloned rat NMDA receptors, corresponding to three putative NMDA receptor subtypes [Moriyoshi, et al. Nature 1991, 354, 31-37; Monyer et al, Science 1992, 256, 1217-1221; Kutsuwada et al, Nature 1992, 358, 36-41; Sugihara et al, Biochem. Biophys Res. Commun. 1992, 185, 826-832].
(§2) Electrophysiological Assays at NMDA Receptor Subunits
(§3) Preparation of RNA. cDNA clones encoding the NR1A, NR2A, NR2B, NR2C and NR2D rat NMDA receptor subtypes were provided by Dr. P. H. Seeburg (see, Moriyoshi et al., Nature (Lond.) 354:31-37 (1991); Kutsuwada et al., Nature (Lond.) 358:36-41 (1992) Monyer et al., Science (Washington, D.C.) 256:1217-1221 (1992); Ikeda et al., FEBS Lett. 313:34-38 (1992); Ishii et al., J. Biol. Chem. 268:2836-2843 (1993) for details of these clones or their mouse homologs). The clones were transformed into appropriate host bacteria and plasmid preparations were made with conventional DNA purification techniques. A sample of each clone was linearized by restriction enzyme digestion and cRNA was synthesized with T3 RNA polymerase. The cRNA was diluted to 400 ng/μl and stored in 1 μl aliquots at -80° C. until injection.
(§4) The Xenopus oocyte expression system. Mature female Xenopus laevis were anaesthetized (20-40 min) using 0.15% 3-aminobenzoic acid ethyl ester (MS-222) and 2-4 ovarian lobes were surgically removed. Oocytes at developmental stages IV-VI (Dumont, J. N., J. Morphol. 136:153-180 (1972)), were dissected from the ovary still surrounded by enveloping ovarian tissues. Follicle-enclosed oocytes were micro-injected with 1:1 mixtures of cRNA:NR1A+NR2A, 2B, 2C or 2D; injecting ~2,5, or 20 ng of RNA encoding each receptor subunit. NR1A encoding cRNA was injected alone at ~20 ng. Oocytes were stored in Barth's medium containing (in mM):NaCl, 88; KCl, 1; CaCl2, 0.41; Ca(NO3)2, 0.33; MgSO4, 0.82 NaHCO3, 2.4; HEPES 5, pH 7.4, with 0.1 mg/ml gentamicin sulphate. While oocytes were still surrounded by enveloping ovarian tissues the Barth's medium was supplemented with 0.1% bovine serum. Oocytes were defolliculated 1-2 days following injections by treatment with collagenase (0.5 mg/ml Sigma Type I for 0.5-1 hr) (Miledi and Woodward, J. Physiol. (Lond.) 416:601-621 (1989)) and subsequently stored in serum-free medium.
(§5) Electrical recordings were made using a conventional two-electrode voltage clamp (Dagan TEV-200) over periods ranging between 3-21 days following injection. (Woodward et al., Mol. Pharmacol. 41: 89-103 (1992)). Oocytes were placed in a 0.1 ml recording chamber continuously perfused (5-15 ml min^-1 ) with frog Ringer's solution containing (in mM):NaCl, 115; KCl, 2; CaCl2, 1.8; HEPES, 5; pH 7.4. Drugs were applied by bath perfusion. Using oocytes expressing different subunit combinations of NMDA receptor, NMDA currents were activated by co-application of glutamate (100 μm) and glycine (1-100 μm). Inhibitory potency of the novel antagonists was assessed on responses elicited by fixed concentrations of glutamate and glycine, by measuring reductions in current induced by progressively increasing concentrations of antagonist. Concentration-inhibition curves were fit with equation 1.
(§6) I/Icontrol =1/(1+([antagonist]/10^-pIC50)^n) Eq. 1
(§7) in which Icontrol is the current evoked by agonists alone, pIC50 =-log IC50, IC50 is the concentration of antagonist that produces half maximal inhibition, and n is the slope factor. (De Lean et al., Am. J. Physiol. 235:E97-102 (1978)). […]

[2] = biological target: T2, NMDA receptor subunits 1A/2C (Rattus norvegicus, UniProt P35439+Q00961); test: Electrophysiological assay at NMDA receptor subunits expressed in Xenopus oocytes, 1A/2C; settings: Xenopus oocytes; glutamate 100 μm and glycine 1-100 μm; read-out: Subunits IC50, 1A/2C
T2 construct: expressed in transfected cells; host or cells: Xenopus laevis oocytes (cRNA injection; clones from Dr. P. H. Seeburg)
T2 sequence (Q00961 20-1237, other chains not shown): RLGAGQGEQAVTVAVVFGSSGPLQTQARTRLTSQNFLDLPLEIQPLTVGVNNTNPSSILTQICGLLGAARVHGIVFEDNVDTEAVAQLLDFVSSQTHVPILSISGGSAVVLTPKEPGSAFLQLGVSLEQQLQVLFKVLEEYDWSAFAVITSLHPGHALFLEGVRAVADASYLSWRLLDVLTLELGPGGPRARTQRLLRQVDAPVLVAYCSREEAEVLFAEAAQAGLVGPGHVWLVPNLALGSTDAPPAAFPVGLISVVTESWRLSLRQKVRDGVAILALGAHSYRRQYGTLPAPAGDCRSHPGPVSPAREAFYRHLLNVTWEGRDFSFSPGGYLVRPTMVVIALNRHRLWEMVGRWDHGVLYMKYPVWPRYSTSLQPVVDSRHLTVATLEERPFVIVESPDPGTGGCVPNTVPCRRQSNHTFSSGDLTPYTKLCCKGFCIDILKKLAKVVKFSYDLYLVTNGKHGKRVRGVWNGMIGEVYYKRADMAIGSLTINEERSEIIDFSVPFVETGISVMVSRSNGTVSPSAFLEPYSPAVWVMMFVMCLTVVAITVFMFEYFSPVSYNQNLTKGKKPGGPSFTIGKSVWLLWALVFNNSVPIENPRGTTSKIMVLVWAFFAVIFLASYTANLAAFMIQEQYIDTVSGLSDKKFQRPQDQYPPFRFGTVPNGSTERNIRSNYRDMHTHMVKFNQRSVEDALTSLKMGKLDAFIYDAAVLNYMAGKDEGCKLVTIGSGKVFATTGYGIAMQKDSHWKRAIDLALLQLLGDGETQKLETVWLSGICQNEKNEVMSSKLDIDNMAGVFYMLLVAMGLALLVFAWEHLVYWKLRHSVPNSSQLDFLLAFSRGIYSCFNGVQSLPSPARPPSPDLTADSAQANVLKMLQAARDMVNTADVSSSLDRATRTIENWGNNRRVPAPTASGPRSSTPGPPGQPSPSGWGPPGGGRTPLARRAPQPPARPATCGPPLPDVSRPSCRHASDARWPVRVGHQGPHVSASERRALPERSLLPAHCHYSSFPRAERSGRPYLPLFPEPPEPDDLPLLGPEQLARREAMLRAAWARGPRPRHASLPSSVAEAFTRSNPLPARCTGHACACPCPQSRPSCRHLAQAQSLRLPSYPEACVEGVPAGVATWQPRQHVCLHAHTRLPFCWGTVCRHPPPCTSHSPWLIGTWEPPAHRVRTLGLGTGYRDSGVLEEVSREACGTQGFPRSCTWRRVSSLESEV
Method: as §1, §2, §3, §4, §5, §6, §7

[3] = biological target: T3, NMDA receptor subunits 1A/2B (Rattus norvegicus, UniProt P35439+Q00960); test: Electrophysiological assay at NMDA receptor subunits expressed in Xenopus oocytes, 1A/2B; settings: Xenopus oocytes; glutamate 100 μm and glycine 1-100 μm; read-out: Subunits IC50, 1A/2B
T3 construct: expressed in transfected cells; host or cells: Xenopus laevis oocytes (cRNA injection; clones from Dr. P. H. Seeburg)
T3 sequence (Q00960 27-1482, other chains not shown): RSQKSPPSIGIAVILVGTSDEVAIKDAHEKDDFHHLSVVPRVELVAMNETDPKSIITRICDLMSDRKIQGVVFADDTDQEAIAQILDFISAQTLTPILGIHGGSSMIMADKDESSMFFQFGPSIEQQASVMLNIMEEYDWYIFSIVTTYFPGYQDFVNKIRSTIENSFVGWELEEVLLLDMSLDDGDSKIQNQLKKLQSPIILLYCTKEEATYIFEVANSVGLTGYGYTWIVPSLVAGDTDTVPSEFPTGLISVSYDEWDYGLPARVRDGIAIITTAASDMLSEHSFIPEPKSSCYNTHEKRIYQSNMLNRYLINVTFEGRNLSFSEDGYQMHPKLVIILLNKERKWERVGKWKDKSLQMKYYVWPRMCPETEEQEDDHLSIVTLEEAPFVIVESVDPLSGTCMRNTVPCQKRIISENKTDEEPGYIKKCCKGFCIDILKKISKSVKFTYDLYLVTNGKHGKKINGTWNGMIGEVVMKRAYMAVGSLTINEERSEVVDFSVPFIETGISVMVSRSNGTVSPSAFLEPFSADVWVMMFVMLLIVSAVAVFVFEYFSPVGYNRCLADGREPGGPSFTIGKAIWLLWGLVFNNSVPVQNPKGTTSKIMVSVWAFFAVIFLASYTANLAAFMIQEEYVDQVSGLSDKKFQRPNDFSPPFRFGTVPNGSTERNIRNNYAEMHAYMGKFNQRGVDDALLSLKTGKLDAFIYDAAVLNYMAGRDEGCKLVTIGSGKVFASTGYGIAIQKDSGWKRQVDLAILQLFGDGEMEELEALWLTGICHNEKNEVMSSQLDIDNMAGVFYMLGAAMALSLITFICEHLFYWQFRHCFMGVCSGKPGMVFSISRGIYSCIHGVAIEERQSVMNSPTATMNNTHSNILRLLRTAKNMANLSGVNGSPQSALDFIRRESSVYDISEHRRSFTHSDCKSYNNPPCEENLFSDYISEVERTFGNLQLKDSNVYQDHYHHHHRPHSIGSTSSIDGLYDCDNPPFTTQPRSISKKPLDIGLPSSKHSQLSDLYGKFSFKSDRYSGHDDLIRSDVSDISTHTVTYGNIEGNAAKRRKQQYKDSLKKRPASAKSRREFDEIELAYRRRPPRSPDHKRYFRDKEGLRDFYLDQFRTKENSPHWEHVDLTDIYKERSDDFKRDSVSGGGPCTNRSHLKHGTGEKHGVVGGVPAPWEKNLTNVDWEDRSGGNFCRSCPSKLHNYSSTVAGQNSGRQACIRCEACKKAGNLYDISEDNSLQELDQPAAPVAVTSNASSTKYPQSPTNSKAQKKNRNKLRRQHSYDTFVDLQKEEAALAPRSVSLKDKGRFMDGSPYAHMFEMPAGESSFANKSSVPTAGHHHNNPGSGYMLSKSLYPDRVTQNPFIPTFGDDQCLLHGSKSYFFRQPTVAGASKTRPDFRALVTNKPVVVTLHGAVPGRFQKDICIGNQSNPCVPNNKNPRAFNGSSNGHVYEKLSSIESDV
Method: as §1, §2, §3, §4, §5, §6, §7

| pIC50 [1] | pIC50 [2] | pIC50 [3] | SMILES |
| --- | --- | --- | --- |
| 4.05 | < 4.00 | 5.30 | CC(CCOc1ccccc1)N1CCC(Cc2ccccc2)CC1 (stereo not drawn) [Ex. 41, 4-Benzyl-1-(1-methyl-3-phenoxypropyl)piperidine hydrochloride] |
| 4.10 | < 4.00 | 5.22 | O=[N+]([O-])c1cccc(OCCN2CCC(Cc3ccccc3)CC2)c1 [Ex. 62, 4-Benzyl-1-[2-(3-nitrophenoxy)ethyl]piperidine] |
| 4.07 | 3.77 | 7.40 | Cc1ccc(CC2CCN(CCOc3ccccc3O)CC2)cc1 [Ex. 161, 1-[2-(2-Hydroxyphenoxy)ethyl]-4-(4-methylbenzyl)piperidine hydrochloride] |
| 3.85 | 4.30 | 6.96 | N=c1[nH]c2ccc(OCCN3CCC(Cc4ccccc4)CC3)cc2[nH]1 [Ex. 172, 4-Benzyl-1-(2-(2-iminobenzimidazol-5-oxy)ethyl)piperidine] |
| < 4.00 | < 4.00 | 5.00 | c1ccc(OCCCCN2CCC(c3ccccc3)CC2)cc1 [Ex. 9, 1-(4-Phenoxybutyl)-4-phenylpiperidine] |
| < 3.52 | < 3.52 | 7.00 | Cc1ccc(CC2CCN(CCOc3ccc4cc(O)ccc4c3)CC2)cc1 [Ex. 192, 4-(4-Methylbenzyl)-1-(2-(2-hydroxynaphth-6-oxy)ethyl)piperidine] |
| 3.89 | 3.85 | 6.30 | Oc1cccc(OCCN2CCC(Cc3ccc(F)cc3)CC2)c1 [Ex. 159, 4-(4-Fluorobenzyl)-1-[2-(3-Hydroxyphenoxy)ethyl]piperidine hydrochloride] |
| 4.05 | 3.70 | 7.40 | Cc1cc(OCCN2CCC(Cc3ccc(F)cc3)CC2)ccc1O [Ex. 152, 1-[2-(4-Hydroxy-3-methylphenoxy)ethyl]-4-(4-fluorobenzyl)piperidine hydrochloride] |
| 4.12 | < 4.00 | 5.30 | c1ccc(CC2CCN(CCOc3ccc4ncccc4c3)CC2)cc1 [Ex. 50] |
| 4.05 | < 4.00 | 5.96 | Nc1ccc(OCCN2CCC(Cc3ccccc3)CC2)cc1[N+](=O)[O-] [Ex. 56, 4-Benzyl-1-[2-(4-amino-3-nitrophenoxy)ethyl]piperidine] |
| 4.35 | < 4.00 | 5.60 | CC(COc1ccccc1)N1CCC(Cc2ccccc2)CC1 (stereo not drawn) [Ex. 21, 4-Benzyl-1-(1-methyl-2-phenoxyethyl)piperidine hydrobromide] |
| 4.22 | 3.57 | 7.52 | Oc1ccc(CCCN2CCC(Cc3ccc(Cl)cc3)CC2)cc1 [Ex. 107, 1-[3-(4-Hydroxyphenyl)propyl]-4-(4-chlorobenzyl)piperidine hydrochloride] |
| 5.26 | < 4.00 | 6.15 | NNC(=O)Cc1cccc(OCCN2CCC(Cc3ccccc3)CC2)c1 [Ex. 20, 4-Benzyl-1-(2-(3-(hydrazinocarbonylmethyl)phenoxy)ethyl)piperidine] |
| 4.10 | < 4.00 | 5.30 | c1ccc(CC2CCN(CCOc3cccc4cccnc34)CC2)cc1 [Ex. 51, 4-Benzyl-1-[2-(8-quinolinoxy)ethyl]piperidine] |
| 4.40 | < 4.00 | 4.66 | O=[N+]([O-])c1ccc(CC2CCN(CCOc3ccc(F)cc3)CC2)cc1 [Ex. 36, 1-(2-(4-Fluorophenoxy)ethyl)-4-(4-nitrobenzyl)piperidine hydrobromide] |
| 4.46 | < 3.52 | 7.00 | CN(CCN1CCC(Cc2ccccc2)CC1)c1ccc(O)cc1 [Ex. 163, 4-Benzyl-1-(2-(N-methyl-4-hydroxyanilino)ethyl)piperidine dihydrochloride] |
| < 4.00 | < 4.00 | 5.05 | OC(CCc1ccccc1)CN1CCC(Cc2ccccc2)CC1 (stereo not drawn) [Ex. 4, 4-Benzyl-1-[(2-hydroxy-4-phenyl)butyl]piperidine] |

The next lines start with the compound.

| SMILES | pIC50 [1] | pIC50 [2] | pIC50 [3] |
| --- | --- | --- | --- |
| Oc1ccc(CCN2CCC(Cc3ccccc3)CC2)cc1 [Ex. 108, 1-[2-(4-Hydroxyphenyl)ethyl]-4-benzylpiperidine hydrochloride] | 4.21 | < 3.52 | 6.60 |
| c1ccc(OCCCN2CCC(c3ccccc3)CC2)cc1 [Ex. 7, 1-(3-Phenoxypropyl)-4-phenylpiperidine] | < 4.00 | < 4.00 | 5.00 |
| Oc1ccc(OCCN2CCC(c3ccccc3)CC2)cc1 [Ex. 127, 1-[2-(4-Hydroxyphenoxy)ethyl]-4-phenylpiperidine hydrochloride] | 4.15 | < 3.52 | 5.30 |
| c1ccc(CC2CCN(CCOc3ccc4c(c3)OCO4)CC2)cc1 [Ex. 148, 1-[2-(3,4-Methylenedioxyphenoxy)ethyl]-4-benzylpiperidine hydrochloride] | 3.98 | 3.87 | 5.42 |
| Cc1ccc(CC2(O)CCN(CCOc3ccc(O)c(C)c3)CC2)cc1 [Ex. 155, 1-[2-(4-hydroxy-3-methylphenoxy)ethyl]-4-hydroxy-4-(4-methylbenzyl)piperidine hydrochloride] | 3.77 | < 3.52 | 7.52 |
| O=[N+]([O-])c1ccc(CC2CCN(CCCOc3ccccc3)CC2)cc1 [Ex. 37, 4-(4-Nitrobenzyl)-1-(3-phenoxypropyl)piperidine hydrobromide] | 4.85 | < 4.00 | 5.00 |
| Nc1c(OCCN2CCC(Cc3ccccc3)CC2)cccc1[N+](=O)[O-] [Ex. 52, 4-Benzyl-1-[2-(2-amino-3-nitrophenoxy)ethyl]piperidine] | 4.22 | < 4.00 | 5.02 |
| COc1cccc(OCCN2CCC(Cc3ccccc3)CC2)c1 [Ex. 69, 4-Benzyl-1-[2-(3-methoxyphenoxy)ethyl]piperidine] | 4.70 | < 4.00 | 6.37 |
| Oc1ccc2cc(OCCN3CCC(Cc4ccc(F)cc4)CC3)ccc2c1 [Ex. 191, 4-(4-Fluorobenzyl)-1-(2-(2-hydroxynaphth-6-oxy)ethyl)piperidine] | 4.60 | < 3.52 | 7.00 |
| Cc1ccc(CC2CCN(CCOc3ccc(O)c(C)c3)CC2)cc1 [Ex. 153, 1-[2-(4-Hydroxy-3-methylphenoxy)ethyl]-4-(4-methylbenzyl)piperidine hydrochloride] | 4.19 | 4.15 | 7.40 |
| c1ccc(CC2CCN(CCSc3ccccc3)CC2)cc1 [Ex. 144, 4-Benzyl-1-(2-thiophenoxyethyl)piperidine hydrochloride] | < 3.52 | < 3.52 | 5.80 |

From patent US6124323A, “4-substituted piperidine analogs and their use as subtype selective NMDA receptor antagonists” (Warner-Lambert Company, priority 1998, dated 2000)
